pIC50: −log10 of the molar value. Counter-ions that a name gives are not always drawn.
biological target: T1, Human thrombin (Homo sapiens, UniProt P00734); experiment: Thrombin protease inhibition assay (chromogenic substrate S-2238); type: biochemical; settings: 3 nM human thrombin, 125 μM S-2238, 10 min pre-incubation, RT
T1 construct: purchased Haematologic Technologies Inc
Protocol: The thrombin activity reported herein (e.g., Table A) was obtained as follows. Human thrombin was obtained from Haematologic Technologies Inc. The chromogenic substrate S-2238 was obtained from DiaPharma. Thrombin was assayed in buffer containing 0.05 M Tris (pH 7.4), 0.015 M NaCl and 0.01% PEG-8000. The final concentration of enzyme used was 3 nM thrombin. The final concentration of substrate used was 125 μM S-2238 for thrombin. All assays were performed in 96-well microtiter plates at room temperature (RT). The enzyme and inhibitor were pre-incubated for 10 minutes then substrate was added and read at 405 nm in a SpectraMax Plus Spectrophotometer (Molecular Devices). Inhibitor IC50 values were determined by adding test compound as ten point, three-fold serial dilutions in buffer solution, as known in the art. The plate was read at 10 minutes after substrate addition. The IC50 was calculated by plotting the percent (%) inhibition against compound concentration and fitting the data to a constrained four parameter sigmoidal curve, as known in the art.

| pIC50 | Structure (SMILES) |
| --- | --- |
| ≤ 4.00 | COc1ccccc1C(=O)n1nc(C2=C(O)CCCC2)nc1NCc1ccccc1 [Entry 16, 2-[5-(benzylamino)-1-(2-methoxybenzoyl)-1H-1,2,4-triazol-3-yl]cyclohex-1-en-1-ol] |
| ≥ 7.00 | COc1ccccc1C(=O)n1nc(C2CN(S(=O)(=O)N(C)C)C2)nc1NCc1ccc(Cl)s1 [Entry 19, 3-(5-[(5-chlorothiophen-2-yl)methyl]amino-1-(2-methoxybenzoyl)-1H-1,2,4-triazol-3-yl)-N,N-dimethylazetidine-1-sulfonamide] |
| ≥ 7.00 | O=C(c1cccc2c1OCCO2)n1nc(C2CNC2)nc1NCc1ccc(Cl)s1 [Entry 21, 3-(azetidin-3-yl)-N-[(5-chlorothiophen-2-yl)methyl]-1-(2,3-dihydro-1,4-benzodioxine-5-carbonyl)-1H-1,2,4-triazol-5-amine; trifluoroacetic acid] |
| ≤ 4.00 | Nc1nc(C2CCOCC2)n[nH]1 [Entry 24, 3-(oxan-4-yl)-1H-1,2,4-triazol-5-amine] |
| ≥ 7.00 | COc1ccccc1C(=O)n1nc(C2CCN(S(=O)(=O)c3ccccc3)CC2)nc1NCc1ccc(Cl)s1 [Entry 28, 3-[1-(benzenesulfonyl)piperidin-4-yl]-N-[(5-chlorothiophen-2-yl)methyl]-1-(2-methoxybenzoyl)-1H-1,2,4-triazol-5-amine] |
| ≥ 7.00 | COc1ccccc1C(=O)n1nc(C2CCN(C(=O)N(C)C)CC2)nc1NCc1ccc(Cl)s1 [Entry 30, 4-(5-[(5-chlorothiophen-2-yl)methyl]amino-1-(2-methoxybenzoyl)-1H-1,2,4-triazol-3-yl)-N,N-dimethylpiperidine-1-carboxamide] |
| ≥ 7.00 | O=C(c1cccc2c1OCCO2)n1nc(C2CCOCC2)nc1NCc1ccc(Cl)s1 [Entry 32, N-[(5-chlorothiophen-2-yl)methyl]-1-(2,3-dihydro-1,4-benzodioxine-5-carbonyl)-3-(oxan-4-yl)-1H-1,2,4-triazol-5-amine] |
| ≥ 7.00 | O=C(c1cccc2c1OCCO2)n1nc(C2CCCO2)nc1NCc1ccc(Cl)s1 (stereo not drawn) [Entry 33, N-[(5-chlorothiophen-2-yl)methyl]-1-(2,3-dihydro-1,4-benzodioxine-5-carbonyl)-3-(oxolan-2-yl)-1H-1,2,4-triazol-5-amine] |
| ≥ 7.00 | COc1ccccc1C(=O)n1nc(C2CCCCC2OC)nc1NCc1ccc(Cl)s1 (stereo not drawn) [Entry 39, N-[(5-chlorothiophen-2-yl)methyl]-1-(2-methoxybenzoyl)-3-(2-methoxycyclohexyl)-1H-1,2,4-triazol-5-amine] |
| ≥ 7.00 | COc1ccccc1C(=O)n1nc(C2CCOCC2)nc1NCc1ccc(Cl)s1 [Entry 40, N-[(5-chlorothiophen-2-yl)methyl]-1-(2-methoxybenzoyl)-3-(oxan-4-yl)-1H-1,2,4-triazol-5-amine] |
| ≥ 7.00 | COc1ccccc1C(=O)n1nc(C2CCCO2)nc1NCc1ccc(Cl)s1 (stereo not drawn) [Entry 41, N-[(5-chlorothiophen-2-yl)methyl]-1-(2-methoxybenzoyl)-3-(oxolan-2-yl)-1H-1,2,4-triazol-5-amine] |
| ≥ 7.00 | COc1ccccc1C(=O)n1nc(C2CCNCC2)nc1NCc1ccc(Cl)s1 [Entry 43, N-[(5-chlorothiophen-2-yl)methyl]-1-(2-methoxybenzoyl)-3-(piperidin-4-yl)-1H-1,2,4-triazol-5-amine] |
| ≥ 7.00 | COc1ccccc1C(=O)n1nc(C2CN(S(=O)(=O)C(C)C)C2)nc1NCc1ccc(Cl)s1 [Entry 46, N-[(5-chlorothiophen-2-yl)methyl]-1-(2-methoxybenzoyl)-3-[1-(propane-2-sulfonyl)azetidin-3-yl]-1H-1,2,4-triazol-5-amine] |
| ≥ 7.00 | COc1ccccc1C(=O)n1nc(C2CCN(C(=O)N3CCCC3)CC2)nc1NCc1ccc(Cl)s1 [Entry 48, N-[(5-chlorothiophen-2-yl)methyl]-1-(2-methoxybenzoyl)-3-[1-(pyrrolidine-1-carbonyl)piperidin-4-yl]-1H-1,2,4-triazol-5-amine] |
| ≥ 7.00 | COc1ccccc1C(=O)n1nc(C2CN(S(=O)(=O)N3CCCC3)C2)nc1NCc1ccc(Cl)s1 [Entry 49, N-[(5-chlorothiophen-2-yl)methyl]-1-(2-methoxybenzoyl)-3-[1-(pyrrolidine-1-sulfonyl)azetidin-3-yl]-1H-1,2,4-triazol-5-amine] |

The remaining lines, values behind:

| Structure (SMILES) | pIC50 |
| --- | --- |
| O=C(c1ccccc1)n1nc(C2CCNCC2)nc1NCc1ccc(Cl)s1 [Entry 15, 1-benzoyl-N-[(5-chlorothiophen-2-yl)methyl]-3-(piperidin-4-yl)-1H-1,2,4-triazol-5-amine hydrochloride] | ≥ 7.00 |
| OC1=C(c2n[nH]c(NCc3ccccc3)n2)CCCC1 [Entry 17, 2-[5-(benzylamino)-1H-1,2,4-triazol-3-yl]cyclohex-1-en-1-ol] | ≤ 4.00 |
| COC1CCCCC1c1n[nH]c(N)n1 (stereo not drawn) [Entry 18, 3-(2-methoxycyclohexyl)-1H-1,2,4-triazol-5-amine] | ≤ 4.00 |
| O=C(c1ccccc1)n1nc(C2CNC2)nc1NCc1ccc(Cl)s1 [Entry 20, 3-(azetidin-3-yl)-1-benzoyl-N-[(5-chlorothiophen-2-yl)methyl]-1H-1,2,4-triazol-5-amine] | ≤ 4.00 |
| O=C(C1CCCCC1)n1nc(C2CNC2)nc1NCc1ccc(Cl)s1 [Entry 22, 3-(azetidin-3-yl)-N-[(5-chlorothiophen-2-yl)methyl]-1-cyclohexanecarbonyl-1H-1,2,4-triazol-5-amine; trifluoroacetic acid] | 6.00 to 7.00 |
| O=C(C1CCCC1)n1nc(C2CNC2)nc1NCc1ccc(Cl)s1 [Entry 23, 3-(azetidin-3-yl)-N-[(5-chlorothiophen-2-yl)methyl]-1-cyclopentanecarbonyl-1H-1,2,4-triazol-5-amine] | ≤ 4.00 |
| Nc1nc(C2CCCO2)n[nH]1 (stereo not drawn) [Entry 25, 3-(oxolan-2-yl)-1H-1,2,4-triazol-5-amine] | ≤ 4.00 |
| Nc1nc(C2CCOC2)n[nH]1 (stereo not drawn) [Entry 26, 3-(oxolan-3-yl)-1H-1,2,4-triazol-5-amine] | ≤ 4.00 |
| COc1ccccc1C(=O)n1nc(C2CN(S(=O)(=O)c3ccccc3)C2)nc1NCc1ccc(Cl)s1 [Entry 27, 3-[1-(benzenesulfonyl)azetidin-3-yl]-N-[(5-chlorothiophen-2-yl)methyl]-1-(2-methoxybenzoyl)-1H-1,2,4-triazol-5-amine] | ≥ 7.00 |
| Nc1nc(C2=C(OCc3ccc(Cl)s3)CCCC2)n[nH]1 [Entry 29, 3-2-[(5-chlorothiophen-2-yl)methoxy]cyclohex-1-en-1-yl-1H-1,2,4-triazol-5-amine] | ≤ 4.00 |
| COc1ccccc1C(=O)n1nc(C2CCN(C(N)=O)CC2)nc1NCc1ccc(Cl)s1 [Entry 31, 4-(5-[(5-chlorothiophen-2-yl)methyl]amino-1-(2-methoxybenzoyl)-1H-1,2,4-triazol-3-yl)piperidine-1-carboxamide] | ≥ 7.00 |
| O=C(c1cccc2c1OCCO2)n1nc(C2CCOC2)nc1NCc1ccc(Cl)s1 (stereo not drawn) [Entry 34, N-[(5-chlorothiophen-2-yl)methyl]-1-(2,3-dihydro-1,4-benzodioxine-5-carbonyl)-3-(oxolan-3-yl)-1H-1,2,4-triazol-5-amine] | ≥ 7.00 |
| O=C(c1cccc2c1OCCO2)n1nc(C2CCNCC2)nc1NCc1ccc(Cl)s1 [Entry 35, N-[(5-chlorothiophen-2-yl)methyl]-1-(2,3-dihydro-1,4-benzodioxine-5-carbonyl)-3-(piperidin-4-yl)-1H-1,2,4-triazol-5-amine hydrochloride] | ≥ 7.00 |
| COc1ccc(C(=O)n2nc(C3CCOCC3)nc2NCc2ccc(Cl)s2)c(OC)c1 [Entry 36, N-[(5-chlorothiophen-2-yl)methyl]-1-(2,4-dimethoxybenzoyl)-3-(oxan-4-yl)-1H-1,2,4-triazol-5-amine] | ≥ 7.00 |
| COc1ccc(C(=O)n2nc(C3CCCO3)nc2NCc2ccc(Cl)s2)c(OC)c1 (stereo not drawn) [Entry 37, N-[(5-chlorothiophen-2-yl)methyl]-1-(2,4-dimethoxybenzoyl)-3-(oxolan-2-yl)-1H-1,2,4-triazol-5-amine] | ≥ 7.00 |
| COc1ccc(C(=O)n2nc(C3CCOC3)nc2NCc2ccc(Cl)s2)c(OC)c1 (stereo not drawn) [Entry 38, N-[(5-chlorothiophen-2-yl)methyl]-1-(2,4-dimethoxybenzoyl)-3-(oxolan-3-yl)-1H-1,2,4-triazol-5-amine] | ≥ 7.00 |
| COc1ccccc1C(=O)n1nc(C2CCOC2)nc1NCc1ccc(Cl)s1 (stereo not drawn) [Entry 42, N-[(5-chlorothiophen-2-yl)methyl]-1-(2-methoxybenzoyl)-3-(oxolan-3-yl)-1H-1,2,4-triazol-5-amine] | ≥ 7.00 |
| COc1ccccc1C(=O)n1nc(C2CCN(C(=O)N3CCCCC3)CC2)nc1NCc1ccc(Cl)s1 [Entry 44, N-[(5-chlorothiophen-2-yl)methyl]-1-(2-methoxybenzoyl)-3-[1-(piperidine-1-carbonyl)piperidin-4-yl]-1H-1,2,4-triazol-5-amine] | ≥ 7.00 |
| COc1ccccc1C(=O)n1nc(C2CN(S(=O)(=O)N3CCCCC3)C2)nc1NCc1ccc(Cl)s1 [Entry 45, N-[(5-chlorothiophen-2-yl)methyl]-1-(2-methoxybenzoyl)-3-[1-(piperidine-1-sulfonyl)azetidin-3-yl]-1H-1,2,4-triazol-5-amine] | ≥ 7.00 |
| COc1ccccc1C(=O)n1nc(C2CCN(S(=O)(=O)C(C)C)CC2)nc1NCc1ccc(Cl)s1 [Entry 47, N-[(5-chlorothiophen-2-yl)methyl]-1-(2-methoxybenzoyl)-3-[1-(propane-2-sulfonyl)piperidin-4-yl]-1H-1,2,4-triazol-5-amine] | ≥ 7.00 |
| Cc1ccccc1C(=O)n1nc(C2CCOCC2)nc1NCc1ccc(Cl)s1 [Entry 50, N-[(5-chlorothiophen-2-yl)methyl]-1-(2-methylbenzoyl)-3-(oxan-4-yl)-1H-1,2,4-triazol-5-amine] | ≥ 7.00 |
